The values below come from ChEMBL document CHEMBL1681761, “Synthesis, biological evaluation and molecular docking studies of stellatin derivatives as cyclooxygenase (COX-1, COX-2) inhibitors and anti-inflammatory agents” (Bioorg Med Chem Lett, 2011).

The subject of assay [1] is Mus musculus. Briefly: Antiinflammatory activity against TPA-induced mouse edema model assessed as reduction in ear edema at 0.5 mg/ear. In kind it is functional.
In assay [2] the target is T1, Prostaglandin G/H synthase 2 (Homo sapiens) (UniProt P35354).
T1 sequence (whole entry): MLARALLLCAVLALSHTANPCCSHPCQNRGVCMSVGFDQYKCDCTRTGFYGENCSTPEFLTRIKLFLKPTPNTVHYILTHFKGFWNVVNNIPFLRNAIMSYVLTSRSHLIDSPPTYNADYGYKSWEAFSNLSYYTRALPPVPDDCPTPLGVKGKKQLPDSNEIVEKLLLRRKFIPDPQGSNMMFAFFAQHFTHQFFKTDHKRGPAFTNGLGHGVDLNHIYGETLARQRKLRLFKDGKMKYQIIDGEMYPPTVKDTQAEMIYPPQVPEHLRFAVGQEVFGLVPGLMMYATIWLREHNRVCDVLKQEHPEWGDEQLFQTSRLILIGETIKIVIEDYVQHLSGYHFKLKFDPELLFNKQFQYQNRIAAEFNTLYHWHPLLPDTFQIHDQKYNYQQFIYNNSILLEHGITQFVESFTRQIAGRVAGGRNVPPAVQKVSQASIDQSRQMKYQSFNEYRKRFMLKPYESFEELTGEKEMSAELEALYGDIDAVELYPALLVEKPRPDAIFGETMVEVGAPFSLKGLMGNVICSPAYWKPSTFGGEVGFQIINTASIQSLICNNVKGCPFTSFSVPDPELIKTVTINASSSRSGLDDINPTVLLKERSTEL
Conditions: at 30 µM.
Description: Inhibition of COX2 at 30 uM

For assay [3], the target named is T2, Prostaglandin G/H synthase 1 (Homo sapiens, UniProt P23219). The conditions noted are these: at 30 µM.
T2 sequence (P23219 whole entry): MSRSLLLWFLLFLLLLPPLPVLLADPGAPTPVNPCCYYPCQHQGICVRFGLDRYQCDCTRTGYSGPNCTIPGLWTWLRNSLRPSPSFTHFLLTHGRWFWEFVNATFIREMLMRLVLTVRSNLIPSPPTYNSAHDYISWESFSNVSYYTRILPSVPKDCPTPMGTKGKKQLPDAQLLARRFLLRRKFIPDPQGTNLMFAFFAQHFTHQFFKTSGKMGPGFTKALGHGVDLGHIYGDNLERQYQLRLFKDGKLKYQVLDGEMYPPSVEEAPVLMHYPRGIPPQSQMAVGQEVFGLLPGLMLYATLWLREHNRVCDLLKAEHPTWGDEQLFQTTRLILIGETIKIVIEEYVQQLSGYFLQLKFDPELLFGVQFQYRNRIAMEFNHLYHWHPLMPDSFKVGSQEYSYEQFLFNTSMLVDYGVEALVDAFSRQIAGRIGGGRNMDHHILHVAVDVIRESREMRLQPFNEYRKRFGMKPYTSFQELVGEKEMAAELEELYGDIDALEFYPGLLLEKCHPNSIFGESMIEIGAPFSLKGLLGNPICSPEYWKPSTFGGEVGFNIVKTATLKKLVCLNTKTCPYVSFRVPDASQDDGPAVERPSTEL
Description: Inhibition of COX1 at 30 uM
The test system of assay [4] is Mus musculus. Briefly: Antiinflammatory activity against TPA-induced mouse edema model assessed as ear thickness at 0.5 mg/ear (Rbv = 0.270 +/- 0.008 mm). Format: functional.
The target in assay [5] is T2, Prostaglandin G/H synthase 1. Put plainly: Inhibition of COX1.
Assay [6] concerns the target T3, Prostaglandin G/H synthase 2 (Homo sapiens, UniProt P35354).
T3 sequence (P35354 whole entry): T1 sequence (whole entry)

The term inhibition denotes the drop in the measured response relative to a control, in per cent. Broadly, the IC50 is the concentration at which inhibition is half-maximal. On to `COc1cc2oc(C)cc(=O)c2c(O)c1OCC=C(C)C`, for which the “inhibition (INH)” value in assay [1] is 77.77%. Further, the inhibition in assay [2] stood at 83.2%; in assay [3], 80.7%. Also, the Activity in assay [4] amounted to 0.06 mm. Also, the values for the half-maximal inhibitory concentration (IC50) in assay [5] and in assay [6] were 18.7 µM and 15.5 µM, respectively.
On to `COc1cc(O)c2c(=O)cc(C)oc2c1` [EUGENIN], for which the “inhibition (INH)” value in assay [1] stood at 73.2%. Besides, the inhibition in assay [2] amounted to 78.5%; in assay [3] it was 85.6%. The Activity in assay [4] is 0.071 mm. The IC50 in assay [5] is 17.8 µM; in assay [6], 20.1 µM.
For `COc1cc2oc(C)cc(=O)c2c(OC)c1OC`, the values for the inhibition in assay [2] and in assay [3] were 47.4% and 70.3%, respectively.
Turning to `COc1ccc2c(c1)c(CC(=O)O)c(C)n2C(=O)c1ccc(Cl)cc1` [INDOMETHACIN], in assay [1], the “inhibition (INH)” value was found to be 81.48%. For the same compound, the Activity in assay [4] is 0.05 mm.
Turning to `COc1cc2oc(C)cc(=O)c2c(O)c1OC` [STELLATIN], in assay [1], the “inhibition (INH)” value was found to be 69.44%. The inhibition is 80.2% in assay [2] and 71.5% in assay [3]. Moreover, the Activity in assay [4] stood at 0.082 mm. Besides, the IC50 in assay [5] stood at 22.3 µM; in assay [6], 19.7 µM.
Turning to `C=CCOc1c(OC)c(OC)cc2oc(C)cc(=O)c12`, in assay [1], the “inhibition (INH)” value was 66.66%. Also, the inhibition came out at 73.9% in assay [2] and 56.2% in assay [3]. For the same compound, in assay [4], the Activity is recorded as 0.09 mm. Further, the IC50 in assay [5] was found to be 38.3 µM; in assay [6], 21.2 µM.
As to `COc1c(OC)c(O)c2c(=O)cc(C)oc2c1Cl`, the “inhibition (INH)” value in assay [1] amounted to 61.11%. Further, the inhibition in assay [2] came out at 50.3%; in assay [3], 66.8%. In assay [4], the Activity was 0.105 mm. The IC50 came to 27.2 µM in assay [5] and 43.4 µM in assay [6].
In assay [3], `COc1cc(/C=C/C(=O)CC(=O)/C=C/c2ccc(O)c(OC)c2)ccc1O` had an inhibition of 59%.
With `COc1cc2oc(C)cc(=O)c2c(OCc2ccccc2)c1OC`, the inhibition was found to be 48.1% in assay [2] and 63.4% in assay [3].
For the compound `CC(C)=CCOc1cc2oc(C)cc(=O)c2c(O)c1OCC=C(C)C`, the “inhibition (INH)” value in assay [1] is 85.18%. Also, the inhibition in assay [2] is 91.7%; in assay [3], 82.3%. For the same compound, the Activity in assay [4] is on record as 0.04 mm. Also, the IC50 was determined as 17.2 µM in assay [5] and 10.3 µM in assay [6].
For the compound `COc1cc2oc(C)cc(=O)c2c(OC(=O)c2ccccc2)c1OC`, the inhibition in assay [2] came to 68.1%; in assay [3], 45.8%.
For `Cc1cc(=O)c2c(O)c(O)c(O)cc2o1`, the “inhibition (INH)” value in assay [1] was found to be 90.74%. Further, the figures for the inhibition in assay [2] and in assay [3] were 94.1% and 87.5%, respectively. In assay [4], the Activity stood at 0.025 mm. Besides, the IC50 in assay [5] was 14.4 µM; in assay [6], 8.87 µM.
With `C=CCOc1c(OC)cc2oc(C)cc(=O)c2c1O`, in assay [1], the “inhibition (INH)” value amounted to 71.3%. The values for the inhibition in assay [2] and in assay [3] were 81.5% and 68.3%, respectively. The Activity in assay [4] is 0.077 mm. Moreover, the IC50 stood at 26 µM in assay [5] and 18 µM in assay [6].
In the case of `CCCOc1c(OC)c(OC)cc2oc(C)cc(=O)c12`, the inhibition turned out to be 48.4% in assay [2] and 40.2% in assay [3].
Take `COc1c(OC)c(O)c2c(=O)cc(C)oc2c1Br`: the “inhibition (INH)” value in assay [1] is reported as 70.37%. Further, the inhibition in assay [2] stood at 67%; in assay [3] it was 63.8%. Besides, in assay [4], the Activity came to 0.08 mm. In addition, the IC50 amounted to 29.3 µM in assay [5] and 25.4 µM in assay [6].
Regarding `COc1cc2oc(C)cc(=O)c2c(OC(C)=O)c1OC`, the inhibition amounted to 46.2% in assay [2] and 59% in assay [3].
For `CCCCOc1c(OC)c(OC)cc2oc(C)cc(=O)c12`, the inhibition in assay [2] is 52.5%; in assay [3] it was 28.4%.
Turning to `C=CCOc1cc2oc(C)cc(=O)c2c(O)c1OCC=C`, the “inhibition (INH)” value in assay [1] was found to be 80.24%. The inhibition in assay [2] came out at 89.5%; in assay [3] it was 74.1%. Moreover, in assay [4], the Activity amounted to 0.053 mm. The IC50 in assay [5] is 21.6 µM; in assay [6], 13.5 µM.
For `COc1cc2oc(C)cc(=O)c2c(OCC=C(C)C)c1OC`, the “inhibition (INH)” value in assay [1] came to 77.16%. The inhibition in assay [2] came to 82.5%; in assay [3], 70.1%. Moreover, in assay [4], the Activity came to 0.061 mm. Moreover, the IC50 amounted to 22.9 µM in assay [5] and 17.6 µM in assay [6].
As to `CCOc1c(OC)c(OC)cc2oc(C)cc(=O)c12`, the inhibition in assay [2] turned out to be 49.8%; in assay [3], 54.9%.
Regarding `COc1cc2oc(C)cc(=O)c2c(O)c1O`, in assay [1], the “inhibition (INH)” value is 78.4%. For the same compound, the inhibition in assay [2] turned out to be 85%; in assay [3] it was 78.1%. For the same compound, in assay [4], the Activity amounted to 0.058 mm. Also, the results for the IC50 in assay [5] and in assay [6] were 19.8 µM and 15.4 µM, respectively.
For `COc1c(OC)c(O)c2c(=O)cc(C)oc2c1I`, the inhibition in assay [2] worked out at 37.7%; in assay [3] it was 57.2%.
